From US20160022665A2, “Pharmaceutical Compositions and Administrations Thereof” (Vertex Pharmaceuticals Incorporated, priority 2012, published 2016)

Legend:
[1] = target: T1, ΔF508-CFTR (Homo sapiens, UniProt P13569, DEL508-508); test: Membrane potential optical assay (fluorescent voltage sensing dyes, FLIPR III), identification of potentiator compounds (Protocol 1); assay type: cell-based
T1 construct: expressed in transfected cells
Source text: The assay utilizes fluorescent voltage sensing dyes to measure changes in membrane potential using a fluorescent plate reader (e.g., FLIPR III, Molecular Devices, Inc.) as a readout for increase in functional ΔF508-CFTR in NIH 3T3 cells. The driving force for the response is the creation of a chloride ion gradient in conjunction with channel activation by a single liquid addition step after the cells have previously been treated with compounds and subsequently loaded with a voltage sensing dye.
To identify potentiators of ΔF508-CFTR, a double-addition HTS assay format was developed. This HTS assay utilizes fluorescent voltage sensing dyes to measure changes in membrane potential on the FLIPR III as a measurement for increase in gating (conductance) of ΔF508 CFTR in temperature-corrected ΔF508 CFTR NIH 3T3 cells. The driving force for the response is a Cl^− ion gradient in conjunction with channel activation with forskolin in a single liquid addition step using a fluorescent plate reader such as FLIPR III after the cells have previously been treated with potentiator compounds (or DMSO vehicle control) and subsequently loaded with a redistribution dye.
Bath Solution #1: (in mM) NaCl 160, KCl 4.5, CaCl2 2, MgCl2 1, HEPES 10, pH 7.4 with NaOH.
Chloride-free bath solution: Chloride salts in Bath Solution #1 (above) are substituted with gluconate salts. […]

[2] = Physical and chemical stability of Compound 3 in aqueous methylcellulose formulations; assay type: physicochemical; details: for physical stability of the HCl salt form in suspension: 0.5% methylcellulose/0.5% polysorbate 80 suspension vehicle, T(0), XRPD and 1H NMR
Method: A 100 mL stock solution of 0.5% by weight methylcellulose was prepared by stirring 0.5 g of methylcellulose with 99.5 g of purified water until completely dissolved (approximately 24 hours). The appropriate amount of Compound 3 HCl salt based on free base was weighed and transferred to a scintillation vial. The desired amount of 0.5% methylcellulose stock solution for making a 6 mg/mL based on free base (6.48 mg/mL based on HCl salt) was transferred into the vial and sonicated for 20 minutes and homogenized for approximately 5 minutes.
Methylcellulose (0.5 g) was combined with 99.0 g of purified water in a beaker and stirred in a 60-70° C. water bath for 30′-1 hr. The solution was stirred in a 0° C. ice/water bath for another 30′ or until clear. Polysorbate 80 (0.5 g) was added and stirring at room temperature followed for 30′-1 hr or until a clear solution was obtained.
The appropriate amount of Compound 3 HCl salt based on free base was weighed and transferred to a scintillation vial. The desired amount of 0.5% methylcellulose and 0.5% polysorbate 80 stock solution for making a 6 mg/mL based on free base (6.48 mg/mL based on HCl salt) was transferred into the vial and sonicated for 20 minutes with alternate stirring for 1-2 minutes. The solution was homogenized for approximately 1-2 minutes.

T1 sequence (P13569 with tags, fused parts or gaps DEL508-508): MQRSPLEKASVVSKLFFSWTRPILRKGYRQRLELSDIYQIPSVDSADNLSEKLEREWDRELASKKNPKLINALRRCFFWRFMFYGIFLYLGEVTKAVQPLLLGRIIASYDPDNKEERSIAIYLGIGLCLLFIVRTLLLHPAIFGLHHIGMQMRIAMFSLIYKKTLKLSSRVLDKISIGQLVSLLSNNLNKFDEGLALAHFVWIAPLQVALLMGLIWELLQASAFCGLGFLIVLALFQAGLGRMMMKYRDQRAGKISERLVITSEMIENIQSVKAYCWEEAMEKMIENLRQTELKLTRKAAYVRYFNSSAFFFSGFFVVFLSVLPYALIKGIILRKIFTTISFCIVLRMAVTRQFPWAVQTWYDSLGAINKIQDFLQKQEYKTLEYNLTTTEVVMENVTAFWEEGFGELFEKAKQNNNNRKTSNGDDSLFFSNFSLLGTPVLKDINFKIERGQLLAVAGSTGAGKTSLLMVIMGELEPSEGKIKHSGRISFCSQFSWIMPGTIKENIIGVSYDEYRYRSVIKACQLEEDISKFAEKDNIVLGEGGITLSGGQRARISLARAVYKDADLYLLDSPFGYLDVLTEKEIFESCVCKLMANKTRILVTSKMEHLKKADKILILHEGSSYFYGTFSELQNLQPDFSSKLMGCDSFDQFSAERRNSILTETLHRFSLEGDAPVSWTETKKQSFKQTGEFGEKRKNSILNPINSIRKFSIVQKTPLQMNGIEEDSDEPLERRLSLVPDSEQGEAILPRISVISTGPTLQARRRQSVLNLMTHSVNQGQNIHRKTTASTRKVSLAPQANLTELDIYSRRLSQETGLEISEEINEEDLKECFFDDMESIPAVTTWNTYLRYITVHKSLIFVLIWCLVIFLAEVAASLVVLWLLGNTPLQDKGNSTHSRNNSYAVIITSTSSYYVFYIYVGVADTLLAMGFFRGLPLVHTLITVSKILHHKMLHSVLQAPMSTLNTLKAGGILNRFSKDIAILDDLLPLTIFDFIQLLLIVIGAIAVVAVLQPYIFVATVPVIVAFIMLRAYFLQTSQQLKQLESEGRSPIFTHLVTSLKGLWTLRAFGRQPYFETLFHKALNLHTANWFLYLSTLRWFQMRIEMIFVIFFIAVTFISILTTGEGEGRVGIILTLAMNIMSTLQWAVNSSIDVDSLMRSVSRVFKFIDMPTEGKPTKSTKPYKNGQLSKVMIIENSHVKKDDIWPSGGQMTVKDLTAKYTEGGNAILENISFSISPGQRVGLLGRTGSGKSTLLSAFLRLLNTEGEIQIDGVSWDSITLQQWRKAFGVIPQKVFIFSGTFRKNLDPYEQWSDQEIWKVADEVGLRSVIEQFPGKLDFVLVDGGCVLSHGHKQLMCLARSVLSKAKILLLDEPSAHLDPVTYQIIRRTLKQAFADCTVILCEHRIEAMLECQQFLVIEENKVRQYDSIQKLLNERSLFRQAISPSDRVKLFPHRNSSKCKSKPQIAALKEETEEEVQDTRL

Q: Which Emax ([1]; Compound 1, potentiator activity, Protocol 1, read-out: % Activity (relative efficacy)) does the source give for CC(C)(C)c1cc(C(C)(C)C)c(NC(=O)c2c[nH]c3ccccc3c2=O)cc1O [Compound 1, N-[2,4-bis(1,1-dimethylethyl)-5-hydroxyphenyl]-1,4-dihydro-4-oxoquinoline-3-carboxamide] here?
A: The Emax was 25 to 100%.

Q: Which “% Efficacy” value ([1]; compounds of Formula II, 100% efficacy is the maximum response obtained with 4-methyl-2-(5-phenyl-1H-pyrazol-3-yl)phenol) does the source give for O=C(Nc1ccc(N2C3CCC2[C@H](O)C3)cc1C(F)(F)F)c1c[nH]c2cccc(C(F)(F)F)c2c1=O (stereo partly drawn) [Compound 2-5] here?
A: Its value is “+++ (“+++” if efficacy was calculated to be greater than 100%)”.

Q: With Cc1ccc(NC(=O)C2(c3ccc4c(c3)OC(F)(F)O4)CC2)nc1-c1cccc(C(=O)O)c1 [Compound 3 Form I, 3-(6-(1-(2,2-difluorobenzo[d][1,3]dioxol-5-yl)cyclopropanecarboxamido)-3-methylpyridin-2-yl)benzoic acid] as the molecule, how does the “chemically stable (time)” value ([2]; room temperature, 0.5% methylcellulose/0.5% polysorbate 80 formulation vehicle, no sign of chemical degradation) read?
A: The value was “at least 24 hrs”.

Q: And the “physically and chemically stable (time)” value ([2]; room temperature, methylcellulose formulation (0.5% by weight), no sign of chemical degradation)?
A: Its value is “at least 24 hrs”.

Q: What does the source list for Cc1ccc(NC(=O)C2(c3ccc4c(c3)OC(F)(F)O4)CC2)nc1-c1cccc(C(=O)O)c1.Cl [Compound 3 HCl salt, 3-(6-(1-(2,2-Difluorobenzo[d][1,3]dioxol-5-yl)cyclopropanecarboxamido)-3-methylpyridin-2-yl)benzoic acid.HCl salt]?
A: physical stability of the HCl salt form in suspension [2]: not physically stable; physical stability of the HCl salt form in suspension ([2]; listed as HCl salt): quickly converted to Compound 3 Form I
